Measurements reported in patent US9371331B2, “Modulators of methyl modifying enzymes, compositions and uses thereof” (Constellation Pharmaceuticals, Inc., priority 2012, dated 2016).
Structures can show the parent of a compound that is named as a salt. Where two headings read alike, the source gives them in different places.

How the values were obtained:
EZH2 (rPRC2) = EZH2 (rPRC2) (Homo sapiens, UniProt Q15910); test: EZH2 assay: rPRC2, biotinylated oligonucleosomes, 3H SAM methyl transfer (FlashPlate scintillation); assay type: biochemical; details: biotinylated oligonucleosome substrate
Experimental: Assays were carried out by mixing rPRC2 together with biotinylated oligonucleosome substrates in the presence of the radio-labeled enzyme co-factor, S-adenosyl-1-methionine (^3H SAM) (Perkin Elmer) and monitoring the enzymatically mediated transfer of tritiated methyl groups from ^3H SAM to histone lysine residues. The amount of resulting tritiated methyl histone product was measured by first capturing the biotinylated oligonucleosomes in streptavidin (SAV) coated FlashPlates (Perkin Elmer), followed by a wash step to remove un-reacted ^3H SAM, and then counting on a TopCount NXT 384 well plate scintillation counter (Perkin Elmer). The final assay conditions for EZH2 were as follows: 50 mM Tris Buffer pH 8.5, 1 mM DTT, 69 μM Brij-35 detergent, 5.0 mM MgCl2, 0.1 mg/mL BSA, 0.2 μM ^3H SAM, 0.2 μM biotinylated oligonucleosomes, 3.6 μM H3K27 mc3 peptide and 2 nM EZH2.
A 12.5 μL volume of the HMT enzyme, H3K27me3 peptide and oligonucleosome substrate in assay buffer was added to each well of the assay plate using a Multidrop Combi (ThermoFisher). Compounds were pre-incubated with the enzyme for 20 min, followed by initiation of the methyltransferase reaction by addition of 12.5 μL of ^3H SAM in assay buffer (final volume=25 μL). The final concentrations of compounds ranged from a top default concentration of 80 μM down to 0.16 μM in ten 2-fold dilution steps. Reactions were carried out for 60 minutes and quenched with 20 μL per well of 1.96 mM SAH, 50 mM Tris pH 8.5, 200 mM EDTA. Stopped reactions were transferred to SAV coated Flashplates (Perkin Elmer), incubated for 120 min, washed with a plate washer, and then read on the TopCount NXT (1.0 min/well) to measure the amount of methyl histone product formed during the reaction.

Y641N EZH2 = Y641N EZH2 (Homo sapiens, UniProt Q15910, Y641N); test: Y641N EZH2 assay: as EZH2 assay, with reconstituted H3K27Me2 oligonucleosomes as substrate; assay type: biochemical
[1] = EZH2 IC50, wild-type EZH2 (rPRC2)
[2] = Y641N EZH2 IC50, Y641N mutant EZH2, H3K27Me2 oligonucleosome substrate
[3] = wild-type EZH2 (rPRC2), read-out: EZH2 IC50
[4] = Y641N mutant EZH2, H3K27Me2 oligonucleosome substrate, read-out: Y641N EZH2 IC50
[5] = Y641N mutant EZH2, H3K27Me2 oligonucleosome substrate

Y641N EZH2, sequence (Q15910 whole entry Y641N): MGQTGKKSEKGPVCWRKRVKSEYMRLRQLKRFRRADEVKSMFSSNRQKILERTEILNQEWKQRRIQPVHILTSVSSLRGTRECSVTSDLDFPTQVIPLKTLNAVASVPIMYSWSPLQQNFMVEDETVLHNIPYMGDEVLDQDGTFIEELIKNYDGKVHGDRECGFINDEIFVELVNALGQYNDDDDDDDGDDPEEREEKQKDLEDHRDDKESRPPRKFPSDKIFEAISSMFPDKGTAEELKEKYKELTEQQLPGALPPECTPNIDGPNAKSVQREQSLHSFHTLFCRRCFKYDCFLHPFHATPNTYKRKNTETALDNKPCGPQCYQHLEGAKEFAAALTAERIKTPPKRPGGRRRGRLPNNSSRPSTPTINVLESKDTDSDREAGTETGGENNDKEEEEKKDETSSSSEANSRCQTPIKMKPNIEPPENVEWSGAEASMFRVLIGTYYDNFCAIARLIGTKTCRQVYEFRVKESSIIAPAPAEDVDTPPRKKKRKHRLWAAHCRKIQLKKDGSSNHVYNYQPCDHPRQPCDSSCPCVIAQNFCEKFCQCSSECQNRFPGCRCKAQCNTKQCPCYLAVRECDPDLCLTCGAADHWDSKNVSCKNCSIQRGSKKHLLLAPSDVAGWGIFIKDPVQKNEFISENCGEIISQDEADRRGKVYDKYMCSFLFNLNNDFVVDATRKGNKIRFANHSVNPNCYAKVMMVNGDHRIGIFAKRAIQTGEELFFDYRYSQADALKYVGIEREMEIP
Y641N EZH2, sequence (O75530 whole entry partner): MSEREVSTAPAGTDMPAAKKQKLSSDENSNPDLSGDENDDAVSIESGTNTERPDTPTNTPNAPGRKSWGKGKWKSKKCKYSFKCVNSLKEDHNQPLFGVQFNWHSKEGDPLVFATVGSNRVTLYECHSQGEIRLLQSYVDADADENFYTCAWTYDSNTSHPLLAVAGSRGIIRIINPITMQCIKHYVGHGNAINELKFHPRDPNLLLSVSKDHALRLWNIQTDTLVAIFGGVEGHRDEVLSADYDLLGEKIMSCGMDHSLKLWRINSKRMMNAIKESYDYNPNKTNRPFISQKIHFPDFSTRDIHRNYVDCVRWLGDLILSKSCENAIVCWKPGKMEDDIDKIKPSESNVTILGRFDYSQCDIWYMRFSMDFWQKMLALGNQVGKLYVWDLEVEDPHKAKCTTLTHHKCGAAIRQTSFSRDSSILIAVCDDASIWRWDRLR
Y641N EZH2, sequence (Q15022 whole entry partner): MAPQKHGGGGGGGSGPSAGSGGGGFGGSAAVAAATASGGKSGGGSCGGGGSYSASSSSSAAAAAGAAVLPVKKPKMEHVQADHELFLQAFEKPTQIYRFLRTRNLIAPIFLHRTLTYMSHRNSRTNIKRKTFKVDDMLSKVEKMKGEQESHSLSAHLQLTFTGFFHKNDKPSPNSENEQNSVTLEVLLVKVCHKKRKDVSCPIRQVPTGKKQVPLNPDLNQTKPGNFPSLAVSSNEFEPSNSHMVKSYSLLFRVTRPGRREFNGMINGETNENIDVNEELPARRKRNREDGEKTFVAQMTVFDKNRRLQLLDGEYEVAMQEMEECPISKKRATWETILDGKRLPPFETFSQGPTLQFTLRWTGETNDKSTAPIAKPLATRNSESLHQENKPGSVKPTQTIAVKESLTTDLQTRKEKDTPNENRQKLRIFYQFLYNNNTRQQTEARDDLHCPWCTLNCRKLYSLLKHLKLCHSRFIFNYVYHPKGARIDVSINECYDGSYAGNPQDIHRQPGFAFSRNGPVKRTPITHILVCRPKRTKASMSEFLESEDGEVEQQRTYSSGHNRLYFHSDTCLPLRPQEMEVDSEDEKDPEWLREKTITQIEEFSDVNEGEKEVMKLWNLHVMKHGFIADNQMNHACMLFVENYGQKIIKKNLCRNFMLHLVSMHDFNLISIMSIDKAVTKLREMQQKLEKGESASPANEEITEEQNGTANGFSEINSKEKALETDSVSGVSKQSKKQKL
EZH2 (rPRC2), sequence (Q15910 whole entry): as the sequence (Q15910 whole entry Y641N) above, with N641Y counted along it
EZH2 (rPRC2), sequence (O75530 whole entry partner): as the sequence (O75530 whole entry partner) above
EZH2 (rPRC2), sequence (Q15022 whole entry partner): as the sequence (Q15022 whole entry partner) above

## Cc1cc(C)c(CNC(=O)c2c(C)n(Cc3cncnc3)c3ccccc23)c(=O)[nH]1 [Compound 149, N-((4,6-dimethyl-2-oxo-1,2-dihydropyridin-3-yl)methyl)-2-methyl-1-(pyrimidin-5-ylmethyl)-1H-indole-3-carboxamide]
EZH2 (rPRC2); [1]
  IC50: 100 to 1000 nM
Y641N EZH2; [2]
  IC50: 1000 to 10000 nM

## Cc1cc(C)c(CNC(=O)c2cn(-c3ccccc3C)c3ccccc23)c(O)n1 [Compound 113, N-((2-hydroxy-4,6-dimethylpyridin-3-yl)methyl)-1-(o-tolyl)-1H-indole-3-carboxamide]
EZH2 (rPRC2); [3]
  IC50: 100 to 1000 nM
Y641N EZH2; [4]
  IC50: 1000 to 10000 nM

## CCC(C)n1c(C)c(C(=O)NCc2c(C)cc(C)[nH]c2=O)c2cccnc21 (single isomer, unassigned) [Compound 196, (R or S)-1-(sec-butyl)-N-((4,6-dimethyl-2-oxo-1,2-dihydropyridin-3-yl)methyl)-2-methyl-1H-pyrrolo[2,3-b]pyridine-3-carboxamide]
Y641N EZH2; [2]
  IC50: 100 to 1000 nM

## CCC(C)n1c(C)c(C(=O)NCc2c(C)cc(C)[nH]c2=O)c2cccnc21 (racemic) [Compound 185, (±)-1-(sec-butyl)-N-((4,6-dimethyl-2-oxo-1,2-dihydropyridin-3-yl)methyl)-2-methyl-1H-pyrrolo[2,3-b]pyridine-3-carboxamide]
EZH2 (rPRC2); [1]
  IC50: 100 to 1000 nM
Y641N EZH2; [2]
  IC50: 1000 to 10000 nM

## Cc1cc(C)c(CNC(=O)c2nn(C(C)c3ccccc3)c3ccccc23)c(O)n1 (centres unmarked) [Compound 112, N-((2-hydroxy-4,6-dimethylpyridin-3-yl)methyl)-1-(1-phenylethyl)-1H-indazole-3-carboxamide]
EZH2 (rPRC2); wild-type EZH2 (rPRC2)
  EZH2 IC50: *(10 μM)
Y641N EZH2; [5]
  Y641N EZH2 IC50: *(10 μM)

## COCC(C)n1c(C)c(C(=O)NCc2c(OC)cc(C)[nH]c2=O)c2ccc(N3CCNCC3)nc21 (racemic) [Compound 295, (±)-N-((4-methoxy-6-methyl-2-oxo-1,2-dihydropyridin-3-yl)methyl)-1-(1-methoxypropan-2-yl)-2-methyl-6-(piperazin-1-yl)-1H-pyrrolo[2,3-b]pyridine-3-carboxamide]
EZH2 (rPRC2); [3]
  IC50: 100 to 1000 nM
Y641N EZH2; [4]
  IC50: 1000 to 10000 nM

## COc1nccc(C(C)n2c(C)c(C(=O)NCc3c(C)cc(C)[nH]c3=O)c3cccnc32)n1 (racemic) [Compound 233, (±)-N-((4,6-dimethyl-2-oxo-1,2-dihydropyridin-3-yl)methyl)-1-(1-(2-methoxypyrimidin-4-yl)ethyl)-2-methyl-1H-pyrrolo[2,3-b]pyridine-3-carboxamide]
EZH2 (rPRC2); [1]
  IC50: 100 to 1000 nM
Y641N EZH2; [2]
  IC50: 1000 to 10000 nM

## COCC(C)n1c(C)c(C(=O)NCc2c(OC)cc(C)[nH]c2=O)c2ccccc21 (single isomer, unassigned) [Compound 223, N-((4-methoxy-6-methyl-2-oxo-1,2-dihydropyridin-3-yl)methyl)-1-(1-methoxypropan-2-yl)-2-methyl-1H-indole-3-carboxamide]
EZH2 (rPRC2); [1]
  IC50: < 100 nM
Y641N EZH2; [2]
  IC50: 100 to 1000 nM

## COc1cc(C)[nH]c(=O)c1CNC(=O)c1c(C)n([C@H](C)[C@H](OC)C2CC2)c2ncccc12 (single isomer, unassigned) [Compound 292, 1-((1R or S, 2R or S)-1-cyclopropyl-1-methoxypropan-2-yl)-N-((4-methoxy-6-methyl-2-oxo-1,2-dihydropyridin-3-yl)methyl)-2-methyl-1H-pyrrolo[2,3-b]pyridine-3-carboxamide]
EZH2 (rPRC2); [1]
  IC50: < 100 nM
Y641N EZH2; [2]
  IC50: 100 to 1000 nM

## Cc1cc(C)c(CNC(=O)c2c(-c3ccccc3)n(C(C)c3ccccc3)c3ccccc23)c(O)n1 (single isomer, unassigned) [Compound 445, (R or S)-N-((2-hydroxy-4,6-dimethylpyridin-3-yl)methyl)-2-phenyl-1-(1-phenylethyl)-1H-indole-3-carboxamide]
EZH2 (rPRC2); wild-type EZH2 (rPRC2)
  EZH2 IC50: *(10 uM)
Y641N EZH2; [5]
  Y641N EZH2 IC50: *(10 uM)

## Cc1cc(C)c(CNC(=O)c2c(C)n(C(C)C3CCN(C4CNC4)CC3)c3ccccc23)c(=O)[nH]1 (single isomer, unassigned) [Compound 376, (R or S)-1-(1-(1-(azetidin-3-yl)piperidin-4-yl)ethyl)-N-((4,6-dimethyl-2-oxo-1,2-dihydropyridin-3-yl)methyl)-2-methyl-1 H-indole-3-carboxamide hydrochloride]
EZH2 (rPRC2); [1]
  IC50: < 100 nM
Y641N EZH2; [2]
  IC50: < 100 nM

## Cc1cc(C)c(CNC(=O)c2c(C)n(C(C)CN3CCOCC3)c3ncccc23)c(=O)[nH]1 (racemic) [Compound 237, (±)-N-((4,6-dimethyl-2-oxo-1,2-dihydropyridin-3-yl)methyl)-2-methyl-1-(1-morpholinopropan-2-yl)-1H-pyrrolo[2,3-b]pyridine-3-carboxamide]
EZH2 (rPRC2); [1]
  IC50: 100 to 1000 nM
Y641N EZH2; [2]
  IC50: 1000 to 10000 nM

## CNC(=O)c1cccc(C(C)n2c(C)c(C(=O)NCc3c(OC)cc(C)[nH]c3=O)c3cccnc32)c1 (centres unmarked) [Compound 263, N-((4-methoxy-6-methyl-2-oxo-1,2-dihydropyridin-3-yl)methyl)-2-methyl-1-(1-(3-(methylcarbamoyl)phenyl)ethyl)-1H-pyrrolo[2,3-b]pyridine-3-carboxamide]
EZH2 (rPRC2); [3]
  IC50: < 100 nM
Y641N EZH2; [4]
  IC50: 100 to 1000 nM

## Cc1cc(C)c(CNC(=O)c2c(C3CC3)n(C(C)c3ccccc3)c3ccccc23)c(O)n1 (racemic) [Compound 131, (±)-2-cyclopropyl-N-((2-hydroxy-4,6-dimethylpyridin-3-yl)methyl)-1-(1-phenylethyl)-1H-indole-3-carboxamide]
EZH2 (rPRC2); wild-type EZH2 (rPRC2)
  EZH2 IC50: *(1.0 μM)
Y641N EZH2; [5]
  Y641N EZH2 IC50: *(1.0 μM)

## Cc1cc(C)c(CNC(=O)c2cnn(Cc3ccccc3)c2C)c(O)n1 [Compound 109, 1-benzyl-N-((2-hydroxy-4,6-dimethylpyridin-3-yl)methyl)-5-methyl-1H-pyrazole-4-carboxamide]
EZH2 (rPRC2); wild-type EZH2 (rPRC2)
  EZH2 IC50: *(10 μM)
Y641N EZH2; [5]
  Y641N EZH2 IC50: *(10 μM)

## Cc1cc(C)c(CNC(=O)c2c(C)n([C@H](C)c3ccccc3)c3nc(N4CCCC4)ncc23)c(O)n1 [Compound 142, (R)—N-((2-hydroxy-4,6-dimethylpyridin-3-yl)methyl)-6-methyl-7-(1-phenylethyl)-2-(pyrrolidin-1-yl)-7H-pyrrolo[2,3-d]pyrimidine-5-carboxamide]
EZH2 (rPRC2); [1]
  IC50: 100 to 1000 nM
Y641N EZH2; [2]
  IC50: 1000 to 10000 nM

## Cc1cc(C)c(CNC(=O)c2c(C)n(C(C)c3ccccc3)c3ncccc23)c(=O)[nH]1 (single isomer, unassigned) [Compound 117, N-((4,6-dimethyl-2-oxo-1,2-dihydropyridin-3-yl)methyl)-2-methyl-1-(1-phenylethyl)-1H-pyrrolo[2,3-b]pyridine-3-carboxamide]
Y641N EZH2; read-out: Y641N EZH2 IC50, Y641N mutant EZH2, H3K27Me2 oligonucleosome substrate
  IC50: 100 to 1000 nM

## COc1cc(C)[nH]c(=O)c1CNC(=O)c1c(C)n(C(C)c2ccccc2)c2ccccc12 (single isomer, unassigned) [Compound 115, (S or R)N-((4-methoxy-6-methyl-2-oxo-1,2-dihydropyridin-3-yl)methyl)-2-methyl-1-(1-phenylethyl)-1H-indole-3-carboxamide]
EZH2 (rPRC2); read-out: EZH2 IC50, wild-type EZH2 (rPRC2)
  IC50: < 100 nM

## Cc1cc(C)c(CNC(=O)c2cnn(C(C)c3ccccc3)c2C)c(O)n1 (single isomer, unassigned) [Compound 108, (R or S)—N-((2-hydroxy-4,6-dimethylpyridin-3-yl)methyl)-5-methyl-1-(1-phenylethyl)-1H-pyrazole-4-carboxamide]
EZH2 (rPRC2); [3]
  IC50: > 10000 nM

## Cc1cc(C)c(CNC(=O)c2c(-c3ccccc3)n(C(C)c3ccccc3)c3ccccc23)c(O)n1 (single isomer, unassigned) [Compound 446, (R or S)-N-((2-hydroxy-4,6-dimethylpyridin-3-yl)methyl)-2-phenyl-1-(1-phenylethyl)-1H-indole-3-carboxamide]
EZH2 (rPRC2); wild-type EZH2 (rPRC2)
  EZH2 IC50: *(10 uM)
